Test results published in US20130040933A1, “AZAINDOLES AS JANUS KINASE INHIBITORS” (priority 2010, published 2013).

What follows are compounds tested against T1, rhJAK3 (Homo sapiens, UniProt P52333) (assay: JAK Biochemical HTRF Assay (JAK3)). Details: recombinant purified GST-tagged catalytic domain, HTRF format, [ATP] 1.7 μM; read-out: JAK3 IC50.
T1 construct: recombinant purified GST-tagged catalytic domain for each enzyme; purchased Invitrogen PV3855
T1 sequence (P52333 822-1111 limits assumed): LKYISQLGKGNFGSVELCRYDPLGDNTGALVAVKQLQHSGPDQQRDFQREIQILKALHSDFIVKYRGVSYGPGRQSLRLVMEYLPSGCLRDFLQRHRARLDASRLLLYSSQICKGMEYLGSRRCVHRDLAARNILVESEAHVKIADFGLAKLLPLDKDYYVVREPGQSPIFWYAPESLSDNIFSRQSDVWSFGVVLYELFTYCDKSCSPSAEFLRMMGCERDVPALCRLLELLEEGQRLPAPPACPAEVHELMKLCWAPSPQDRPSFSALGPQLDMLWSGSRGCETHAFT

IC50	SMILES
≤ 0.001 µM	C[C@@H](Nc1cncc(-c2c[nH]c3ncc(-c4cnc(N)nc4)cc23)n1)C(=O)NCC(F)(F)F [Example 15-6, N^2-{6-[5-(2-aminopyrimidin-5-yl)-1H-pyrrolo[2,3-b]pyridin-3-yl]pyrazin-2-yl}-N-(2,2,2-trifluoroethyl)-D-alaninamide]
≤ 0.001 µM	C[C@@H](Nc1cncc(-c2c[nH]c3ncc(-c4cncc(C#N)c4)cc23)n1)C(=O)NCC(F)(F)F [Example 15-19, N^2-{6-[5-(5-cyanopyridin-3-yl)-1H-pyrrolo[2,3-b]pyridin-3-yl]pyrazin-2-yl}-N-(2,2,2-trifluoroethyl)-D-alaninamide]
≤ 0.001 µM	C[C@@H](Nc1cncc(-c2c[nH]c3ncc(C4=CCCOC4)cc23)n1)C(=O)NCC(F)(F)F [Example 15-16, N^2-{6-[5-(5,6-dihydro-2H-pyran-3-yl)-1H-pyrrolo[2,3-b]pyridin-3-yl]pyrazin-2-yl}-N-(2,2,2-trifluoroethyl)-D-alaninamide]

Same assay, conditions: recombinant purified GST-tagged catalytic domain, HTRF format, [ATP] 1.7 μM; read-out: rhJAK3 IC50

SMILES	IC50
C[C@@H](Nc1cncc(-c2c[nH]c3ncc(Cl)cc23)n1)C(=O)N1CCC(F)(F)CC1 [Example 2-12, 6-(5-chloro-1H-pyrrolo[2,3-b]-pyridin-3-yl)-N-[(1R)-2-(4,4-difluoropiperidin-1-yl)-1-methyl-2-oxoethyl]pyrazin-2-amine]	0.1 to 1 µM
Cc1cnc2[nH]cc(-c3cncc(N[C@H](C)C(=O)NCC(F)(F)F)n3)c2c1 [Example 15, N2-[6-(5-methyl-1H-pyrrolo[2,3-b]pyridin-3-yl)pyrazin-2-yl]-N-(2,2,2-trifluoroethyl)-D-alaninamide]	0.001 to 0.01 µM
O=C(NCC(F)(F)F)C1CN(c2cncc(-c3c[nH]c4ncc(Cl)cc34)n2)C1 [Example 1-15, 1-[6-(5-chloro-1H-pyrrolo[2,3-b]pyridin-3-yl)pyrazin-2-yl]-N-(2,2,2-trifluoroethyl)azetidine-3-carboxamide]	0.01 to 0.1 µM
O=C(NCC(F)(F)F)[C@H]1CCCN1c1cncc(-c2c[nH]c3ncc(Cl)cc23)n1 [Example 1-6, 1-[6-(5-chloro-1H-pyrrolo[2,3-b]pyridin-3-yl)pyrazin-2-yl]-N-(2,2,2-trifluoroethyl)-D-prolinamide]	≤ 0.001 µM
O=C(NCC(F)(F)F)C1=C(c2cncc(-c3c[nH]c4ncc(Cl)cc34)n2)CCC1 [Example 10-1, 2-[6-(5-chloro-1H-pyrrolo[2,3-b]pyridin-3-yl)pyrazin-2-yl]-N-(2,2,2-trifluoroethyl)cyclopent-1-ene-1-carboxamide]	0.001 to 0.01 µM
O=C(NCC(F)(F)F)[C@@H]1CC(F)(F)CN1c1cncc(-c2c[nH]c3ncc(Cl)cc23)n1 [Example 1-8, 1-[6-(5-chloro-1H-pyrrolo[2,3-b]pyridin-3-yl)pyrazin-2-yl]-4,4-difluoro-N-(2,2,2-trifluoroethyl)-L-prolinamide]	0.001 to 0.01 µM
CC1(C(=O)NCC(F)(F)F)CC1c1cncc(-c2c[nH]c3ncc(Cl)cc23)n1 (stereo not drawn) [Example 10-2, 2-[6-(5-chloro-1H-pyrrolo[2,3-b]pyridin-3-yl)pyrazin-2-yl]-1-methyl-N-(2,2,2-trifluoroethyl)cyclopropanecarboxamide]	0.001 to 0.01 µM
C[C@H](Oc1cncc(-c2c[nH]c3ncc(Cl)cc23)n1)C(=O)NCC(F)(F)F [Example 6-4, 2(S) 2-{[6-(5-chloro-1H-pyrrolo[2,3-b]pyridin-3-yl)pyrazin-2-yl]oxy}-N-(2,2,2-trifluoroethyl)propanamide]	0.001 to 0.01 µM
CC(=O)N1CCN(c2cncc(-c3c[nH]c4ncc(Cl)cc34)n2)[C@@H](C(=O)NCC(F)(F)F)C1 [Example 4-2, (2R)-4-acetyl-1-[6-(5-chloro-1H-pyrrolo-[2,3-b]pyridin-3-yl)pyrazin-2-yl]-N-(2,2,2-trifluoroethyl)piperazine-2-carboxamide]	0.001 to 0.01 µM
O=C(NCCC(F)(F)F)C1(Nc2cncc(-c3c[nH]c4ncc(Cl)cc34)n2)CCCC1 [Example 2-26, 1-{[6-(5-chloro-1H-pyrrolo[2,3-b]pyridin-3-yl)pyrazin-2-yl]amino}-N-(3,3,3-trifluoropropyl)cyclopentanecarboxamide]	0.1 to 1 µM
CN(C)C(=O)C1(Oc2cncc(-c3c[nH]c4ncc(Cl)cc34)n2)CC1 [Example 6-2, 1-{[6-(5-chloro-1H-pyrrolo[2,3-b]pyridin-3-yl)pyrazin-2-yl]oxy}-N,N-dimethyl-cyclopropanecarboxamide]	0.001 to 0.01 µM
C[C@H](Nc1cncc(-c2c[nH]c3ncc(Cl)cc23)n1)C(=O)N1CCOCC1 [Example 2-2, 6-(5-chloro-1H-pyrrolo[2,3-b]-pyridin-3-yl)-N-[(1S)-1-methyl-2-morpholin-4-yl-2-oxoethyl]pyrazin-2-amine]	0.1 to 1 µM
O=C(NCC(F)(F)F)[C@@H]1CC[C@@H](Nc2cncc(-c3c[nH]c4ncc(Cl)cc34)n2)C1 [Example 1-1, (1R,3R)-3-{[6-(5-chloro-1H-pyrrolo[2,3-b]pyridin-3-yl)-pyrazin-2-yl]amino}-N-(2,2,2-trifluoroethyl)cyclopentane-carboxamide]	0.001 to 0.01 µM

Further lines, results first:

IC50	SMILES
0.001 to 0.01 µM	O=C(NCC(F)(F)F)[C@@H]1CC[C@H](Nc2cncc(-c3c[nH]c4ncc(Cl)cc34)n2)C1 [Example 1-3, (1R,3S)-3-{(6-(5-chloro-1H-pyrrolo[2,3-b]pyridin-3-yl)-pyrazin-2-yl]amino}-N-(2,2,2-trifluoroethyl)cyclopentane-carboxamide]
0.1 to 1 µM	C[C@@H](Nc1cncc(-c2c[nH]c3ncc(Cl)cc23)n1)C(=O)NCCCN1CCS(=O)(=O)CC1 [Example 2-20, N^2-[6-(5-chloro-1H-pyrrolo[2,3-b]-pyridin-3-yl)pyrazin-2-yl]-N-[3-(1,1-dioxidothiomorpholin-4-yl)-propyl]-D-alaninamide]
0.01 to 0.1 µM	C[C@@H](Nc1cncc(-c2c[nH]c3ncc(Cl)cc23)n1)C(=O)NCCC1CC1 [Example 2-8, N^2-[6-(5-chloro-1H-pyrrolo[2,3-b]-pyridin-3-yl)pyrazin-2-yl]-N-(2-cyclopropylethyl)-D-alaninamide]
0.001 to 0.01 µM	C[C@@]1(C(=O)NCC(F)(F)F)CCN1c1cncc(-c2c[nH]c3ncc(Cl)cc23)n1 [Example 1-10, (2S)-1-[6-(5-chloro-1H-pyrrolo[2,3-b]pyridin-3-yl)pyrazin-2-yl]-2-methyl-N-(2,2,2-trifluoroethyl)azetidine-2-carboxamide]
0.1 to 1 µM	O=C(NCCC(F)(F)F)C1(Oc2cncc(-c3c[nH]c4ncc(Cl)cc34)n2)CC1 [Example 6-3, 1-{[6-(5-chloro-1H-pyrrolo[2,3-b]pyridin-3-yl)pyrazin-2-yl]oxy}-N-(3,3,3-trifluoro-propyl)cyclopropanecarboxamide]
0.001 to 0.01 µM	CCNC(=O)[C@H]1CCCN1c1cncc(-c2c[nH]c3ncc(Cl)cc23)n1 [Example 1-7, 1-[6-(5-chloro-1H-pyrrolo[2,3-b]pyridin-3-yl)pyrazin-2-yl]-N-ethyl-D-prolinamide]
0.01 to 0.1 µM	O=C(Cc1cncc(-c2c[nH]c3ncc(Cl)cc23)n1)NCCC(F)(F)F [Example 8-3, 2-[6-(5-chloro-1H-pyrrolo[2,3-b]-pyridin-3-yl)pyrazin-2-yl]-N-(3,3,3-trifluoropropyl) acetamide]
0.1 to 1 µM	C[C@@H](Nc1cncc(-c2c[nH]c3ncc(Cl)cc23)n1)C(=O)N1CCN(CC(F)(F)F)CC1 [Example 2-19, 6-(5-chloro-1H-pyrrolo[2,3-b]-pyridin-3-yl)-N-{(1R)-1-methyl-2-oxo-2-[4-(2,2,2-trifluoroethyl)-piperazin-1-yl]ethyl}pyrazin-2-amine]
